Assay results reported in ChEMBL document CHEMBL1201862, “PubChem BioAssay data set” (2004).
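Assay format: 96-well plates, 48-hour exposure. Abbreviation: GI50, concentration required for 50% inhibition of growth.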 The source made the active and inactive calls. Rule as the data show it: active = GI50 up to about 1.1 µM and inactive = higher.

Columns and labels:
Test in all cases: DTP human tumour cell line panel, 48 h
K562 = tested on: K562
NCI-H23 = tested on: NCI-H23
SW-620 = tested on: SW-620
SF-539 = tested on: SF-539
PC-3 = tested on: PC-3
IGROV-1 = tested on: IGROV-1
KM12 = tested on: KM12
MDA-N = tested on: MDA-N
HT-29 = tested on: HT-29
SNB-19 = tested on: SNB-19
MOLT-4 = tested on: MOLT-4
U-251 = tested on: U-251
UACC-257 = tested on: UACC-257
NCI-H460 = tested on: NCI-H460
M14 = tested on: M14
HOP-92 = tested on: HOP-92
MCF7 = tested on: MCF7
SR = tested on: SR
SF-295 = tested on: SF-295
ACHN = tested on: ACHN
CAKI-1 = tested on: CAKI-1
OVCAR-3 = tested on: OVCAR-3
SK-MEL-5 = tested on: SK-MEL-5
A498 = tested on: A498
BT-549 = tested on: BT-549
HOP-62 = tested on: HOP-62
NCI-H226 = tested on: NCI-H226
HCT-116 = tested on: HCT-116
NCI-H522 = tested on: NCI-H522
HCC 2998 = tested on: HCC 2998
SNB-75 = tested on: SNB-75
MDA-MB-231 = tested on: MDA-MB-231
LOX IMVI = tested on: LOX IMVI
OVCAR-4 = tested on: OVCAR-4
SF-268 = tested on: SF-268
DU-145 = tested on: DU-145
OVCAR-8 = tested on: OVCAR-8
A549 = tested on: A549
HCT-15 = tested on: HCT-15
OVCAR-5 = tested on: OVCAR-5
UO-31 = tested on: UO-31
CCRF-CEM = tested on: CCRF-CEM
Hs-578T = tested on: Hs-578T
SK-OV-3 = tested on: SK-OV-3
SK-MEL-2 = tested on: SK-MEL-2
T47D = tested on: T47D
COLO 205 = tested on: COLO 205
TK-10 = tested on: TK-10
UACC-62 = tested on: UACC-62
RXF 393 = tested on: RXF 393
NCI/ADR-RES = tested on: NCI/ADR-RES
786-0 = tested on: 786-0
HL-60 = tested on: HL-60
MDA-MB-435 = tested on: MDA-MB-435
EKVX = tested on: EKVX
RPMI-8226 = tested on: RPMI-8226
SK-MEL-28 = tested on: SK-MEL-28
SN12C = tested on: SN12C
Malme-3M = tested on: Malme-3M

With CCc1nc(N)nc(N)c1-c1ccc(N2CCOCC2)c(N=[N+]=[N-])c1 the GI50 (K562) was 8.79 µM (inactive), the GI50 (NCI-H23) was 37.2 µM (inactive) and the GI50 (SW-620) was 41.9 µM (inactive). The GI50 (SF-539) was 75.5 µM (inactive), the GI50 (PC-3) was 42.6 µM (inactive) and the GI50 (IGROV-1) was 28.2 µM (inactive). The GI50 (KM12) was 70.5 µM (inactive), the GI50 (MDA-N) was 57.1 µM (inactive) and the GI50 (HT-29) was 31.8 µM (inactive). The GI50 (SNB-19) was 38.3 µM (inactive), the GI50 (MOLT-4) was 64.3 µM (inactive) and the GI50 (U-251) was 67 µM (inactive). For the same molecule, the GI50 (UACC-257) was > 100 µM (inactive), the GI50 (NCI-H460) was 8.85 µM (inactive) and the GI50 (M14) was 54.3 µM (inactive). For the same molecule, the GI50 (HOP-92) was 78.3 µM (inactive), the GI50 (MCF7) was 71.3 µM (inactive) and the GI50 (SR) was 36.9 µM (inactive). For the same molecule, the GI50 (SF-295) was 63 µM (inactive), the GI50 (ACHN) was 46 µM (inactive) and the GI50 (CAKI-1) was 62.2 µM (inactive). The GI50 (OVCAR-3) was 77.6 µM (inactive), the GI50 (SK-MEL-5) was 37.2 µM (inactive) and the GI50 (A498) was > 92 µM (inactive). For the same molecule, the GI50 (BT-549) was > 78.2 µM (inactive), the GI50 (HOP-62) was > 100 µM (inactive) and the GI50 (NCI-H226) was 98.2 µM (inactive). The GI50 (HCT-116) was 18.4 µM (inactive), the GI50 (NCI-H522) was 20.9 µM (inactive) and the GI50 (HCC 2998) was 47.9 µM (inactive). The GI50 (SNB-75) was > 92 µM (inactive), the GI50 (MDA-MB-231) was > 100 µM (inactive) and the GI50 (LOX IMVI) was 38.7 µM (inactive). The GI50 (OVCAR-4) was 70.6 µM (inactive), the GI50 (SF-268) was 44.7 µM (inactive) and the GI50 (DU-145) was > 82.8 µM (inactive). The GI50 (OVCAR-8) was 61.7 µM (inactive), the GI50 (A549) was 21.2 µM (inactive) and the GI50 (HCT-15) was 20.3 µM. For the same molecule, the GI50 (OVCAR-5) was > 100 µM (inactive), the GI50 (UO-31) was > 100 µM (inactive) and the GI50 (CCRF-CEM) was 53.8 µM (inactive). The GI50 (Hs-578T) was > 100 µM (inactive), the GI50 (SK-OV-3) was > 100 µM (inactive) and the GI50 (SK-MEL-2) was > 100 µM (inactive). The GI50 (T47D) was > 92.7 µM (inactive), the GI50 (COLO 205) was 79.6 µM (inactive) and the GI50 (TK-10) was > 100 µM (inactive). For the same molecule, the GI50 (UACC-62) was 47 µM (inactive), the GI50 (RXF 393) was > 83.2 µM (inactive) and the GI50 (NCI/ADR-RES) was > 100 µM (inactive). For the same molecule, the GI50 (786-0) was 57.3 µM (inactive), the GI50 (HL-60) was > 28.2 µM (inactive) and the GI50 (MDA-MB-435) was 55.1 µM (inactive). The GI50 (EKVX) was 66.7 µM (inactive), the GI50 (RPMI-8226) was > 89.5 µM (inactive) and the GI50 (SK-MEL-28) was > 100 µM (inactive). The GI50 (SN12C) was > 80.5 µM (inactive).

In the case of C=C1CCC2C(C)(CO)C(O)CCC2(C)C1C/C=C1\C(=O)OCC1O (centres undefined), the GI50 (K562) is reported as 3.24 µM (inactive), the GI50 (NCI-H23) is reported as 21.6 µM (inactive) and the GI50 (SW-620) is reported as 9.71 µM (inactive). For the same molecule, the GI50 (SF-539) was 20.6 µM (inactive), the GI50 (PC-3) was 20.1 µM (inactive) and the GI50 (IGROV-1) was 18.2 µM (inactive). The GI50 (KM12) was 14.1 µM (inactive), the GI50 (MDA-N) was 9.31 µM (inactive) and the GI50 (HT-29) was 5.28 µM (inactive). The GI50 (SNB-19) was 54.8 µM (inactive), the GI50 (MOLT-4) was 28.2 µM (inactive) and the GI50 (U-251) was 11.1 µM (inactive). The GI50 (UACC-257) was 20 µM (inactive), the GI50 (NCI-H460) was 21.2 µM (inactive) and the GI50 (M14) was 17.8 µM (inactive). The GI50 (HOP-92) was 27.8 µM (inactive), the GI50 (MCF7) was 15.7 µM (inactive) and the GI50 (SR) was 1.01 µM (active). The GI50 (SF-295) was 19.9 µM (inactive), the GI50 (ACHN) was 29 µM (inactive) and the GI50 (Malme-3M) was 15.6 µM (inactive). The GI50 (OVCAR-3) was 9.4 µM (inactive), the GI50 (SK-MEL-5) was 14.1 µM (inactive) and the GI50 (A498) was 32.7 µM (inactive). The GI50 (BT-549) was 7.53 µM (inactive), the GI50 (HOP-62) was 28.2 µM (inactive) and the GI50 (NCI-H226) was 39.8 µM (inactive). For the same molecule, the GI50 (HCT-116) was 14.7 µM (inactive), the GI50 (NCI-H522) was 10.4 µM (inactive) and the GI50 (HCC 2998) was 22.5 µM (inactive). For the same molecule, the GI50 (SNB-75) was 15.4 µM (inactive), the GI50 (MDA-MB-231) was 26.4 µM (inactive) and the GI50 (LOX IMVI) was 12.6 µM (inactive). For the same molecule, the GI50 (OVCAR-4) was 11.1 µM (inactive), the GI50 (SF-268) was 31.1 µM (inactive) and the GI50 (DU-145) was 38.8 µM (inactive). For the same molecule, the GI50 (OVCAR-8) was 10.1 µM (inactive), the GI50 (A549) was 23.8 µM (inactive) and the GI50 (HCT-15) was 14.6 µM. The GI50 (OVCAR-5) was 17.1 µM (inactive), the GI50 (UO-31) was 36.3 µM (inactive) and the GI50 (CCRF-CEM) was 3.87 µM (inactive). For the same molecule, the GI50 (Hs-578T) was 36.6 µM (inactive), the GI50 (SK-OV-3) was 24 µM (inactive) and the GI50 (SK-MEL-2) was 15.2 µM (inactive). For the same molecule, the GI50 (T47D) was 24.7 µM (inactive), the GI50 (COLO 205) was 14.8 µM (inactive) and the GI50 (TK-10) was 52.8 µM (inactive). For the same molecule, the GI50 (UACC-62) was 18.8 µM (inactive), the GI50 (RXF 393) was 18.7 µM (inactive) and the GI50 (NCI/ADR-RES) was 25 µM (inactive). For the same molecule, the GI50 (786-0) was 5.4 µM (inactive), the GI50 (HL-60) was 16.2 µM (inactive) and the GI50 (MDA-MB-435) was 10.3 µM (inactive). The GI50 (EKVX) was 29.3 µM (inactive), the GI50 (RPMI-8226) was 5.42 µM (inactive) and the GI50 (SK-MEL-28) was 13.9 µM (inactive). The GI50 (SN12C) was 15.2 µM (inactive).

For O=[N+]([O-])c1ccc(NN/N=N/c2ccc(-c3nc4ccccc4[nH]3)cc2)c([N+](=O)[O-])c1, the GI50 (K562) was 6.52 µM (inactive), the GI50 (NCI-H23) was 29 µM (inactive) and the GI50 (SW-620) was 68.5 µM (inactive). The GI50 (SF-539) was 40.9 µM (inactive), the GI50 (PC-3) was 27.8 µM (inactive) and the GI50 (IGROV-1) was 7.33 µM (inactive). For the same molecule, the GI50 (KM12) was 31.9 µM (inactive), the GI50 (MDA-N) was 39.9 µM (inactive) and the GI50 (HT-29) was 36.5 µM (inactive). The GI50 (SNB-19) was > 100 µM (inactive), the GI50 (MOLT-4) was 5.14 µM (inactive) and the GI50 (U-251) was 53.7 µM (inactive). For the same molecule, the GI50 (UACC-257) was 76.7 µM (inactive), the GI50 (NCI-H460) was 9.44 µM (inactive) and the GI50 (M14) was 23.1 µM (inactive). The GI50 (HOP-92) was 43.8 µM (inactive), the GI50 (MCF7) was 4.27 µM (inactive) and the GI50 (SR) was 2.74 µM (inactive). The GI50 (SF-295) was 4.2 µM (inactive), the GI50 (ACHN) was 19.4 µM (inactive) and the GI50 (Malme-3M) was 75 µM (inactive). The GI50 (CAKI-1) was 23.2 µM (inactive), the GI50 (OVCAR-3) was 28.4 µM (inactive) and the GI50 (SK-MEL-5) was 10.4 µM (inactive). The GI50 (A498) was 25.6 µM (inactive), the GI50 (BT-549) was 48.3 µM (inactive) and the GI50 (HOP-62) was 42.6 µM (inactive). The GI50 (NCI-H226) was 43.2 µM (inactive), the GI50 (HCT-116) was 26.7 µM (inactive) and the GI50 (NCI-H522) was 17.9 µM (inactive). The GI50 (HCC 2998) was 31 µM (inactive), the GI50 (SNB-75) was 96.6 µM (inactive) and the GI50 (MDA-MB-231) was > 100 µM (inactive). For the same molecule, the GI50 (LOX IMVI) was 7.48 µM (inactive), the GI50 (OVCAR-4) was 28.6 µM (inactive) and the GI50 (SF-268) was 26.1 µM (inactive). The GI50 (DU-145) was 66.1 µM (inactive), the GI50 (OVCAR-8) was 22.5 µM (inactive) and the GI50 (A549) was 58.3 µM (inactive). For the same molecule, the GI50 (HCT-15) was 19.7 µM, the GI50 (OVCAR-5) was > 100 µM (inactive) and the GI50 (UO-31) was 84.1 µM (inactive). The GI50 (CCRF-CEM) was 9.04 µM (inactive), the GI50 (Hs-578T) was 64.9 µM (inactive) and the GI50 (SK-OV-3) was 94.6 µM (inactive). For the same molecule, the GI50 (SK-MEL-2) was 29 µM (inactive), the GI50 (T47D) was 30.1 µM (inactive) and the GI50 (COLO 205) was 27.7 µM (inactive). The GI50 (TK-10) was > 100 µM (inactive), the GI50 (UACC-62) was 4.06 µM (inactive) and the GI50 (RXF 393) was 47.3 µM (inactive). For the same molecule, the GI50 (NCI/ADR-RES) was 45.7 µM (inactive), the GI50 (786-0) was 36.3 µM (inactive) and the GI50 (HL-60) was 13.8 µM (inactive). The GI50 (MDA-MB-435) was 54 µM (inactive), the GI50 (EKVX) was 17.4 µM (inactive) and the GI50 (SK-MEL-28) was > 100 µM (inactive). The GI50 (SN12C) was 64.6 µM (inactive).
